From PubChem BioAssay (NCI)
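Cells were grown in 96-well plates and exposed to each compound for 48 hours at five concentrations; endpoints were interpolated linearly between bracketing concentrations, or set to the highest concentration if not reached. At the TGI there is no net growth.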

Tests used:
Test in all cases: NCI tumour cell line growth inhibition, 48 h
M14 melanoma = test system: M14 melanoma
SR leukemia = test system: SR leukemia
KM12 colon = test system: KM12 colon
SF-268 CNS = test system: SF-268 CNS
TK-10 renal = test system: TK-10 renal
OVCAR-8 ovarian = test system: OVCAR-8 ovarian
MCF7 breast = test system: MCF7 breast
SW-620 colon = test system: SW-620 colon
IGROV1 ovarian = test system: IGROV1 ovarian
UACC-257 melanoma = test system: UACC-257 melanoma
SF-539 CNS = test system: SF-539 CNS
SK-MEL-2 melanoma = test system: SK-MEL-2 melanoma
COLO 205 colon = test system: COLO 205 colon
HOP-92 NSCLC = test system: HOP-92 NSCLC
SK-MEL-5 melanoma = test system: SK-MEL-5 melanoma
MOLT-4 leukemia = test system: MOLT-4 leukemia
OVCAR-4 ovarian = test system: OVCAR-4 ovarian
SNB-19 CNS = test system: SNB-19 CNS
K-562 leukemia = test system: K-562 leukemia
HL-60(TB) leukemia = test system: HL-60(TB) leukemia
SK-MEL-28 melanoma = test system: SK-MEL-28 melanoma
HOP-62 NSCLC = test system: HOP-62 NSCLC
HS 578T breast = test system: HS 578T breast
SF-295 CNS = test system: SF-295 CNS
HCC-2998 colon = test system: HCC-2998 colon
NCI-H23 lung = test system: NCI-H23 lung
UO-31 renal = test system: UO-31 renal
SNB-75 CNS = test system: SNB-75 CNS
T-47D breast = test system: T-47D breast
EKVX NSCLC = test system: EKVX NSCLC
ACHN renal = test system: ACHN renal
RXF 393 renal = test system: RXF 393 renal
U251 CNS = test system: U251 CNS
HCT-116 colon = test system: HCT-116 colon
CAKI-1 renal = test system: CAKI-1 renal
DU-145 prostate = test system: DU-145 prostate
CCRF-CEM leukemia = test system: CCRF-CEM leukemia
UACC-62 melanoma = test system: UACC-62 melanoma
LOX IMVI melanoma = test system: LOX IMVI melanoma
MDA-MB-435 = test system: MDA-MB-435
PC-3 prostate = test system: PC-3 prostate
HCT-15 colon = test system: HCT-15 colon
NCI-H226 lung = test system: NCI-H226 lung
SK-OV-3 ovarian = test system: SK-OV-3 ovarian
RPMI-8226 leukemia = test system: RPMI-8226 leukemia
HT29 colon = test system: HT29 colon
NCI-H460 lung = test system: NCI-H460 lung
BT-549 breast = test system: BT-549 breast
NCI/ADR-RES ovarian = test system: NCI/ADR-RES ovarian
786-0 renal = test system: 786-0 renal
MDA-MB-231 breast = test system: MDA-MB-231 breast

CC(C)[Si]1(C(C)C)OCC2OC3(CO)C(Oc4nc(=O)ccn43)C2O[Si](C(C)C)(C(C)C)O1 (stereo unspecified)
TGI (M14 melanoma): 30.4 µM
TGI (SR leukemia): 47.1 µM
TGI (KM12 colon): 30.8 µM
TGI (SF-268 CNS): 35.6 µM
TGI (TK-10 renal): 32.1 µM
TGI (OVCAR-8 ovarian): 31.8 µM
TGI (MCF7 breast): 18.6 µM
TGI (SW-620 colon): 34.7 µM
TGI (IGROV1 ovarian): 33 µM
TGI (UACC-257 melanoma): 30.1 µM
TGI (SF-539 CNS): 28.3 µM
TGI (SK-MEL-2 melanoma): 30.5 µM
TGI (COLO 205 colon): 22 µM
TGI (HOP-92 NSCLC): 32.2 µM
TGI (SK-MEL-5 melanoma): 32.9 µM
TGI (MOLT-4 leukemia): 24.8 µM
TGI (OVCAR-4 ovarian): 26.7 µM
TGI (SNB-19 CNS): 32.7 µM
TGI (K-562 leukemia): 45.5 µM
TGI (HL-60(TB) leukemia): 27.1 µM
TGI (SK-MEL-28 melanoma): 29.3 µM
TGI (HOP-62 NSCLC): 29.2 µM
TGI (HS 578T breast): 45.9 µM
TGI (SF-295 CNS): 29.6 µM
TGI (HCC-2998 colon): 25.4 µM
TGI (NCI-H23 lung): 30.1 µM
TGI (UO-31 renal): 27.2 µM
TGI (SNB-75 CNS): 30.7 µM
TGI (T-47D breast): 24 µM
TGI (EKVX NSCLC): 35 µM
TGI (ACHN renal): 29.3 µM
TGI (RXF 393 renal): 18.3 µM
TGI (U251 CNS): 28.1 µM
TGI (HCT-116 colon): 24.7 µM
TGI (CAKI-1 renal): 29.4 µM
TGI (DU-145 prostate): 27.7 µM
TGI (CCRF-CEM leukemia): 24.6 µM
TGI (UACC-62 melanoma): 26.8 µM
TGI (LOX IMVI melanoma): 28.7 µM
TGI (MDA-MB-435): 31.4 µM
TGI (PC-3 prostate): 17.7 µM
TGI (HCT-15 colon): 28.5 µM
TGI (NCI-H226 lung): 31 µM
TGI (SK-OV-3 ovarian): 36.3 µM
TGI (RPMI-8226 leukemia): 23.9 µM
TGI (HT29 colon): 27.2 µM
TGI (NCI-H460 lung): 29.2 µM
TGI (BT-549 breast): 24.9 µM
TGI (NCI/ADR-RES ovarian): 41.6 µM
TGI (786-0 renal): 28.9 µM
TGI (MDA-MB-231 breast): 23.2 µM
